Tests used:
cucumber gray mold = assay: Preventive effect test of cucumber gray mold (wettable powder sprayed on potted cucumber, preventive value); type: in vivo; conditions: wettable powder suspended at 250 mg/l, sprayed on potted cucumber at 100 l/10 a; morbidity investigated 4th to 6th day after inoculation
Protocol: (Preventive Effect Test of Cucumber Gray Mold)
The wettable powders obtained by using each compound were diluted with water and were suspended at a predetermined concentration (250 mg/l) and the solution was sprayed over the first to second leaf stage-cucumber (variety: “Sagamihanpakufushinari”) cultivated by using a square plastic pot (size: 6.4 cm×6.4 cm) at a rate of 100 1/10 a.
After the sprayed leaves were air-dried, a paper disk where the solution of the spore of the gray mold suspended with water was impregnated was put on the aforementioned sprayed leaves, and the leaves were contracted in a glass greenhouse (temperature: 20 to 24° C. and relative humidity: 20 to 70 RH). The morbidity rate was investigated based on the following investigation standard on 4th to 6th day after the inoculation and the preventive value was calculated according to the following formula 2.

cucumber powdery mildew = assay: Preventive effect of cucumber powdery mildew (wettable powder sprayed on potted cucumber, preventive value); type: in vivo; conditions: wettable powder suspended at 100 mg/l, sprayed on potted cucumber at 100 l/10 a; morbidity investigated 9th to 14th day after inoculation
Protocol: (Preventive Effect of Cucumber Powdery Mildew)
The wettable powders obtained by using each compound were diluted with water and were suspended at a predetermined concentration (100 mg/l) and the solution was sprayed over the first to second leaf stage-cucumber (variety: “Sagamihanpakufushinari”) cultivated by using a square plastic pot (size: 6.4 cm×6.4 cm) at a rate of 100 1/10 a.
After the sprayed leaves were air-dried, the spore was inoculated over the aforementioned air-dried leaves from the contracted leaves with a brush, and the contraction was performed in a glass greenhouse (temperature: 20 to 24° C. and relative humidity: 20 to 70 RH). The morbidity rate was investigated based on the same investigation standard as that in the preventive effect test of the cucumber gray mold on 9th to 14th day after the inoculation, and the preventive value was calculated according to the aforementioned formula 2.

[1] = tested on: Erysiphe graminis f. sp tritici; assay: Preventive effect test of wheat powdery mildew (wettable powder sprayed on potted wheat, preventive value); type: in vivo; conditions: wettable powder suspended at 250 mg/l, sprayed on potted wheat at 100 l/10 a; morbidity investigated 9th to 14th day after inoculation
Protocol: (Preventive Effect Test of Erysiphe graminis f. sp […])
The wettable powders obtained by using each compound were diluted with water and were suspended at a predetermined concentration (250 mg/l) and the solution was sprayed over the first to second leaf stage-wheat (variety. Agriculture and Forestry No. 64) cultivated by using a square plastic pot (size: 6.4 cm×6.4 cm) at a rate of 100 1/10 a (are).
After the sprayed leaves were air-dried, the suspension of the spore of Erysiphe graminis f. sp tritici germ sampled from the contracted leaves were sprayed and inoculated over the sprayed leaf after air-dried, the leaves were kept at 20 to 24° C. under a high-humidity condition for 24 hours, then, the leaves were subjected to still standing in a greenhouse (temperature: 20 to 24° C. and relative humidity: 20 to 70 RH). The morbidity rate was investigated based on the following investigation standard on 9th to 14th day after the inoculation and the preventive value was calculated according to the following formula 1.

Aspergillus fumigatus = assay: Antibacterial test to Aspergillus fumigatus (96-hole plate, IC80); type: cell-based; conditions: YNB culture with 0.22% low melting point-agarose, 1×10^4 cell/ml, 25° C., 72 hours, absorbance at 620 nm
Protocol: (Antibacterial Test to Aspergillus fumigatus)
In the test example, a test was performed on the antibacterial of the compounds according to the present invention to Aspergillus fumigatus in the method later described.
Aspergillus fumigatus was cultivated in Sabouraud's agar at 37° C. for 3 days, after the spores to be used for the test were formed, the spore suspension was prepared. The spore suspension was suspended in YNB culture to which a 0.22% low melting point-agarose was added so as to allow the final concentration to be 1×10^4 cell/ml, and the solution was poured into each hole on a 96-hole flat-bottomed plate. Next, the dilution trains using each of the compounds according to the present invention were added, the solution was cultivated at 25° C. for 72 hours, and the propagation rate of the mold was evaluated by measuring the absorbance at 620 nm. With such a test, the propagation rate of the mold in the chemical-free test area was compared with this case to find the concentration of the compound where the propagation rate of the mold is suppressed by 80% as IC 80 (80% growth inhibition concentration).

CN(Cc1ccc(F)nc1)CC(C)(C)Cc1ccc(OC(F)(F)F)cc1 [Compound I-140]
Preventive Value (%) (cucumber gray mold): 100%
Preventive Value (%) (cucumber powdery mildew): 100%
Preventive Value (%) [1]: 100%

CC(C)(CNCc1cnc(Cl)cn1)Cc1ccc(C(C)(C)C)cc1 [Compound I-5]
80% Growth Inhibition Concentration (IC80) (Aspergillus fumigatus): 9 µg/mL

CN(Cc1ccc(Cl)nc1)CC(C)(C)Cc1ccc(OCC(F)(F)C(F)(F)F)cc1 [Compound I-85]
Preventive Value (%) (cucumber gray mold): 100%
Preventive Value (%) (cucumber powdery mildew): 100%
Preventive Value (%) [1]: 100%

Cn1cc(CNCC(C)(C)Cc2ccc(F)cc2F)cn1 [Compound I-9]
80% Growth Inhibition Concentration (IC80) (Aspergillus fumigatus): 150 µg/mL

CC(C)Oc1ccc(CC(C)(C)CN(C)Cc2ccc(Cl)nc2)cc1 [Compound I-74]
Preventive Value (%) (cucumber gray mold): 100%
Preventive Value (%) (cucumber powdery mildew): 100%
Preventive Value (%) [1]: 100%

CON=C(C)c1ccc(CC(C)(C)CN(C)Cc2ccc(Cl)nc2)cc1 [Compound I-116]
Preventive Value (%) (cucumber gray mold): 100%
Preventive Value (%) (cucumber powdery mildew): 100%
Preventive Value (%) [1]: 100%

CCON=C(C)c1ccc(CC(C)(C)CN(C)Cc2ccc(Cl)nc2)cc1 [Compound I-117]
Preventive Value (%) (cucumber gray mold): 100%
Preventive Value (%) (cucumber powdery mildew): 100%
Preventive Value (%) [1]: 100%

COCc1ccc(CC(C)(C)CN(C)Cc2ccc(Cl)nc2)cc1 [Compound I-88]
Preventive Value (%) (cucumber gray mold): 100%
Preventive Value (%) (cucumber powdery mildew): 100%
Preventive Value (%) [1]: 100%

CN(Cc1ccc(Br)nc1)CC(C)(C)Cc1ccc(OC(F)(F)F)cc1 [Compound I-139]
Preventive Value (%) (cucumber gray mold): 100%
Preventive Value (%) (cucumber powdery mildew): 100%
Preventive Value (%) [1]: 100%

CN(Cc1ccc(Cl)nc1)CC(C)(C)Cc1ccc(OCC(F)(F)C(F)F)cc1 [Compound I-84]
Preventive Value (%) (cucumber gray mold): 100%
Preventive Value (%) (cucumber powdery mildew): 100%
Preventive Value (%) [1]: 100%

CN(Cc1ccc(Cl)nc1)CC(C)(C)Cc1ccc(OC(F)(F)C(F)F)cc1 [Compound I-83]
Preventive Value (%) (cucumber gray mold): 100%
Preventive Value (%) (cucumber powdery mildew): 100%
Preventive Value (%) [1]: 100%

CC(C)(CNCc1ccc(Cl)nc1)Cc1ccc(C(C)(C)C)cc1 [Compound I-2]
Preventive Value (%) [1]: 100%
80% Growth Inhibition Concentration (IC80) (Aspergillus fumigatus): 38 µg/mL

CN(Cc1ccc(Cl)nc1)CC(C)(C)CCc1cccc(Oc2ccccc2)c1 [Compound I-55]
Preventive Value (%) (cucumber powdery mildew): 100%

CC(CCc1ccc(Cl)cc1Cl)CN(C)Cc1ccc(Cl)nc1 (stereo not drawn) [Compound I-56]
Preventive Value (%) (cucumber powdery mildew): 100%
Preventive Value (%) [1]: 100%

CN(Cc1ccc(C(F)(F)F)nc1)CC(C)(C)Cc1ccc(OC(F)(F)F)cc1 [Compound I-141]
Preventive Value (%) (cucumber gray mold): 100%
Preventive Value (%) (cucumber powdery mildew): 100%
Preventive Value (%) [1]: 100%

COC(C)c1ccc(CC(C)(C)CN(C)Cc2ccc(Cl)nc2)cc1 (stereo not drawn) [Compound I-95]
Preventive Value (%) (cucumber gray mold): 100%
Preventive Value (%) (cucumber powdery mildew): 100%
Preventive Value (%) [1]: 100%

CN(Cc1ccc(F)nc1)CC(C)(C)Cc1ccc(C(C)(C)C)cc1 [Compound I-19]
Preventive Value (%) (cucumber gray mold): 100%
Preventive Value (%) (cucumber powdery mildew): 100%
Preventive Value (%) [1]: 100%

CCC(=NOC)c1ccc(CC(C)(C)CN(C)Cc2ccc(Cl)nc2)cc1 [Compound I-121]
Preventive Value (%) (cucumber gray mold): 100%
Preventive Value (%) (cucumber powdery mildew): 100%
Preventive Value (%) [1]: 100%

CC(Cc1cccc(Cl)c1)CN(C)Cc1ccc(Cl)nc1 (stereo not drawn) [Compound (b), 6-chloro-N-methyl-N-[2-methyl-3-(3-chlorophenyl)propyl]-3-pyridylmethylamine, reference compound]
Preventive Value (%) (cucumber gray mold): 30%
Preventive Value (%) (cucumber powdery mildew): 80%
Preventive Value (%) [1]: 70%

Cn1cc(CNCC(C)(C)Cc2ccccc2F)cn1 [Compound I-7]
80% Growth Inhibition Concentration (IC80) (Aspergillus fumigatus): 150 µg/mL

CCOCc1ccc(CC(C)(C)CN(C)Cc2ccc(Cl)nc2)cc1 [Compound I-89]
Preventive Value (%) (cucumber gray mold): 100%
Preventive Value (%) (cucumber powdery mildew): 100%
Preventive Value (%) [1]: 100%

CN(Cc1cnc(Cl)s1)CC(C)(C)Cc1ccc(OC(F)(F)F)cc1 [Compound I-142]
Preventive Value (%) (cucumber gray mold): 100%
Preventive Value (%) (cucumber powdery mildew): 100%
Preventive Value (%) [1]: 100%

CN(Cc1ccc(Cl)nc1)CC(C)(C)Cc1ccc(OCC(F)(F)F)cc1 [Compound I-82]
Preventive Value (%) (cucumber gray mold): 100%
Preventive Value (%) (cucumber powdery mildew): 100%
Preventive Value (%) [1]: 100%

CN(Cc1ccc(Cl)nc1)CC(C)(C)Cc1ccc(OC(C)(C)C)cc1 [Compound I-73]
Preventive Value (%) (cucumber gray mold): 100%
Preventive Value (%) (cucumber powdery mildew): 100%
Preventive Value (%) [1]: 100%

CC(C)(CNCc1ccc(Cl)nc1)Cc1ccccc1Cl [Compound I-3]
80% Growth Inhibition Concentration (IC80) (Aspergillus fumigatus): 9 µg/mL

CN(Cc1ccc(Cl)nc1)CC(C)(C)Cc1ccc2c(c1)OC(F)(F)O2 [Compound I-49]
Preventive Value (%) (cucumber powdery mildew): 100%
Preventive Value (%) [1]: 100%

CCOC(C)c1ccc(CC(C)(C)CN(C)Cc2ccc(Cl)nc2)cc1 (stereo not drawn) [Compound I-96]
Preventive Value (%) (cucumber gray mold): 100%
Preventive Value (%) (cucumber powdery mildew): 100%
Preventive Value (%) [1]: 100%

CC(C)(CNCc1ccccn1)Cc1ccc(C(C)(C)C)cc1 [Compound I-1]
80% Growth Inhibition Concentration (IC80) (Aspergillus fumigatus): 5 µg/mL

CC(Cc1ccc(Cl)cc1Cl)CN(C)Cc1ccc(Cl)nc1 (stereo not drawn) [Compound (a), 6-chloro-N-methyl-N-[2-methyl-3-(2,4-dichlorophenyl)propyl]-3-pyridylmethylamine, reference compound]
Preventive Value (%) (cucumber gray mold): 80%
Preventive Value (%) (cucumber powdery mildew): 70%
Preventive Value (%) [1]: 60%
